Results from ChEMBL document CHEMBL2086272, “Anticlastogenic effect in human lymphocytes by the sodium salt of 3,4-secoisopimar-4(18),7,15-trien-3-oic acid” (J Nat Prod, 2012).
Activity calls are given as the source filed them. The calls are words filed in the database; no cut-off is given here.

Legend:
PBL [1] = assay: Antimutagenic activity in human PBL assessed as inhibition of ethyl methanesulfonate-induced frequency of micronucleus per 1000 binucleated lymphocyte cells at 1930 uM co-treated with ethyl methanesulfonate by cytokinesis blocking technique (reference value: 4.00 +/- 0.41 micronucleus frequency/1000 binucleated lymphocyte cells); format: functional
PBL [2] = assay: Cytotoxicity in human PBL assessed as nuclear division index at 0.3 uM treated after treatment with colcemid (reference value: 1.59 +/- 0.08 nuclear division index); format: cell-based
PBL [3] = assay: Cytotoxicity in human PBL assessed as nuclear division index at 0.3 uM treated after treatment with ethyl methanesulfonate (reference value: 1.59 +/- 0.08 nuclear division index); format: cell-based
PBL [4] = assay: Cytotoxicity in human PBL assessed as nuclear division index at 0.054 uM co-treated with colcemid (reference value: 1.65 +/- 0.06 nuclear division index); format: cell-based
PBL [5] = assay: Cytotoxicity in human PBL assessed as nuclear division index at 3.3 uM co-treated with colcemid (reference value: 1.65 +/- 0.06 nuclear division index); format: cell-based
PBL [6] = assay: Cytotoxicity in human PBL assessed as nuclear division index at 3.3 uM treated after treatment with colcemid (reference value: 1.59 +/- 0.08 nuclear division index); format: cell-based
PBL [7] = assay: Cytotoxicity in human PBL assessed as nuclear division index at 0.3 uM co-treated with ethyl methanesulfonate (reference value: 1.65 +/- 0.06 nuclear division index); format: cell-based
PBL [8] = assay: Antimutagenic activity in human PBL assessed as inhibition of colcemid-induced frequency of micronucleus per 1000 binucleated lymphocyte cells at 0.3 uM co-treated with colcemid by cytokinesis blocking technique (reference value: 4.00 +/- 0.41 micronucleus frequency/1000 binucleated lymphocyte cells); format: functional
PBL [9] = assay: Antimutagenic activity in human PBL assessed as inhibition of colcemid-induced frequency of micronucleus per 1000 binucleated lymphocyte cells at 0.3 uM pretreated before colcemid by cytokinesis blocking technique (reference value: 3.33 +/- 0.88 micronucleus frequency/1000 binucleated lymphocyte cells); format: functional
PBL [10] = assay: Antimutagenic activity in human PBL assessed as inhibition of ethyl methanesulfonate-induced frequency of micronucleus per 1000 binucleated lymphocyte cells at 0.3 uM pretreated before ethyl methanesulfonate by cytokinesis blocking technique (reference value: 3.33 +/- 0.88 micronucleus frequency/1000 binucleated lymphocyte cells); format: functional
PBL [11] = assay: Cytotoxicity in human PBL assessed as nuclear division index at 33 uM treated after treatment with ethyl methanesulfonate (reference value: 1.59 +/- 0.08 nuclear division index); format: cell-based
PBL [12] = assay: Cytotoxicity in human PBL assessed as nuclear division index at 0.3 to 330 uM; format: cell-based
PBL [13] = assay: Cytotoxicity in human PBL assessed as nuclear division index at 330 uM pretreated before ethyl methanesulfonate (reference value: 1.63 +/- 0.11 nuclear division index); format: cell-based
PBL [14] = assay: Cytotoxicity in human PBL assessed as nuclear division index at 3.3 uM co-treated with ethyl methanesulfonate (reference value: 1.65 +/- 0.06 nuclear division index); format: cell-based
PBL [15] = assay: Cytotoxicity in human PBL assessed as nuclear division index at 3.3 uM pretreated before ethyl methanesulfonate (reference value: 1.63 +/- 0.11 nuclear division index); format: cell-based
PBL [16] = assay: Cytotoxicity in human PBL assessed as nuclear division index at 330 uM co-treated with colcemid (reference value: 1.65 +/- 0.06 nuclear division index); format: cell-based
PBL [17] = assay: Cytotoxicity in human PBL assessed as nuclear division index at 3.3 uM pretreated before colcemid (reference value: 1.63 +/- 0.11 nuclear division index); format: cell-based
PBL [18] = assay: Antimutagenic activity in human PBL assessed as inhibition of ethyl methanesulfonate-induced frequency of micronucleus per 1000 binucleated lymphocyte cells at 3.3 uM co-treated with ethyl methanesulfonate by cytokinesis blocking technique (reference value: 4.00 +/- 0.41 micronucleus frequency/1000 binucleated lymphocyte cells); format: functional
PBL [19] = assay: Antimutagenic activity in human PBL assessed as inhibition of colcemid-induced frequency of micronucleus per 1000 binucleated lymphocyte cells at 0.3 uM treated after treatment with colcemid by cytokinesis blocking technique (reference value: 3.33 +/- 0.33 micronucleus frequency/1000 binucleated lymphocyte cells); format: functional
PBL [20] = assay: Cytotoxicity in human PBL assessed as nuclear division index at 33 uM pretreated before ethyl methanesulfonate (reference value: 1.63 +/- 0.11 nuclear division index); format: cell-based
PBL [21] = assay: Cytotoxicity in human PBL assessed as nuclear division index at 1930 uM co-treated with ethyl methanesulfonate (reference value: 1.65 +/- 0.06 nuclear division index); format: cell-based
PBL [22] = assay: Cytotoxicity in human PBL assessed as nuclear division index at 3.3 uM treated after treatment with ethyl methanesulfonate (reference value: 1.59 +/- 0.08 nuclear division index); format: cell-based
PBL [23] = assay: Antimutagenic activity in human PBL assessed as inhibition of colcemid-induced frequency of micronucleus per 1000 binucleated lymphocyte cells at 330 uM pretreated before colcemid by cytokinesis blocking technique (reference value: 3.33 +/- 0.88 micronucleus frequency/1000 binucleated lymphocyte cells); format: functional, cell-based
PBL [24] = assay: Antimutagenic activity in human PBL assessed as inhibition of ethyl methanesulfonate-induced frequency of micronucleus per 1000 binucleated lymphocyte cells at 330 uM treated after treatment with ethyl methanesulfonate by cytokinesis blocking technique (reference value: 3.33 +/- 0.33 micronucleus frequency/1000 binucleated lymphocyte cells); format: functional
PBL [25] = assay: Antimutagenic activity in human PBL assessed as inhibition of ethyl methanesulfonate-induced frequency of micronucleus per 1000 binucleated lymphocyte cells at 330 uM co-treated with ethyl methanesulfonate by cytokinesis blocking technique (reference value: 4.00 +/- 0.41 micronucleus frequency/1000 binucleated lymphocyte cells); format: functional
PBL [26] = assay: Antimutagenic activity in human PBL assessed as inhibition of colcemid-induced frequency of micronucleus per 1000 binucleated lymphocyte cells at 3.3 uM treated after treatment with colcemid by cytokinesis blocking technique (reference value: 3.33 +/- 0.33 micronucleus frequency/1000 binucleated lymphocyte cells); format: functional
PBL [27] = assay: Antimutagenic activity in human PBL assessed as inhibition of colcemid-induced frequency of micronucleus per 1000 binucleated lymphocyte cells at 330 uM co-treated with colcemid by cytokinesis blocking technique (reference value: 4.00 +/- 0.41 micronucleus frequency/1000 binucleated lymphocyte cells); format: functional
PBL [28] = assay: Antimutagenic activity in human PBL assessed as inhibition of colcemid-induced frequency of micronucleus per 1000 binucleated lymphocyte cells at 0.054 uM pretreated before colcemid by cytokinesis blocking technique (reference value: 3.33 +/- 0.88 micronucleus frequency/1000 binucleated lymphocyte cells); format: functional
PBL [29] = assay: Cytotoxicity in human PBL assessed as nuclear division index at 0.3 uM pretreated before colcemid (reference value: 1.63 +/- 0.11 nuclear division index); format: cell-based
PBL [30] = assay: Antimutagenic activity in human PBL assessed as inhibition of colcemid-induced frequency of micronucleus per 1000 binucleated lymphocyte cells at 33 uM co-treated with colcemid by cytokinesis blocking technique (reference value: 4.00 +/- 0.41 micronucleus frequency/1000 binucleated lymphocyte cells); format: functional

C=C[C@@]1(C)CC[C@H]2C(=CC[C@@H](C(=C)C)[C@]2(C)CCC(=O)[O-])C1.[Na+]
Activity (PBL [1]): 15.8 | Activity (PBL [2]): 1.59 | Activity (PBL [3]): 1.43 | Activity (PBL [4]): 1.39 | Activity (PBL [5]): 1.42 | Activity (PBL [6]): 1.58 | Activity (PBL [7]): 1.38 | Activity (PBL [8]): 21.5 | Activity (PBL [9]): 19.25 | Activity (PBL [10]): 5.5 | Activity (PBL [11]): 1.36 | Activity (PBL [12]): Non-toxic | Activity (PBL [13]): 1.28 | Activity (PBL [14]): 1.58 | Activity (PBL [15]): 1.49 | Activity (PBL [16]): 1.41 | Activity (PBL [17]): 1.28 | Activity (PBL [18]): 6.75 | Activity (PBL [19]): 11.25 | Activity (PBL [20]): 1.42 | Activity (PBL [21]): 1.55 | Activity (PBL [22]): 1.36 | Activity (PBL [23]): inactive | Activity (PBL [24]): 20 | Activity (PBL [25]): 4.5 | Activity (PBL [26]): 12.25 | Activity (PBL [27]): 20.25 | Activity (PBL [28]): 22.75 | Activity (PBL [29]): 1.44 | Activity (PBL [30]): 21
